Assay results from US7358221B1, “Metathesis depolymerizable surfactants” (Sandia Corporation, priority 2004, dated 2008).

Legend:
[1] = Ring-closing metathesis degradation followed by 1H NMR in chloroform; type: physicochemical; conditions: 2 mol. % RuCl2[C21H26N2][CHC6H5]P(C6H11)3 (2nd generation Grubbs catalyst), 25° C.
From the text: Decomposition of these surfactant molecules takes place by the action of a ring closing metathesis-active transition metal catalyst on the tail portion of the surfactant, as illustrated in FIG. 8. It is believed that initiation of the decomposition reaction produces styrene. Intramolecular reaction of double bonds further up the tail group produces cyclohexene faster than cross-metathesis with another surfactant.
Cyclohexene formation is clearly evident in the solution within five minutes of adding the catalyst, as evidenced by the appearance of broad singlets at δ=1.62 and 1.97 ppm and a characteristic singlet at δ=5.67 ppm.
^1H NMR also indicates the presence of the former head group as 7-(N,N,N-trimethylammonium)hept-1-enyl iodide (unchanged chemical shift at δ=3.48 ppm from starting surfactant 4) as well as the cross-coupled product, cis/trans-1,12-bis(trimethylammonium)dodec-6-enyl diiodide (equivalent methyls at δ=3.43 ppm).
Within 5 minutes after the introduction of catalyst, cyclohexene was clearly present in solution as evidenced by the appearance of broad singlets at δ=1.62 and 1.97 ppm and a characteristic singlet at δ=5.67 ppm (see FIG. 10).
Additionally, peaks clearly assignable to allyl malonic acid (δ=5.12-5.22 ppm, δ=3.57 ppm, δ=2.68 ppm) were present, by comparison with an authentic sample. […]

[2] = Critical micelle concentration by dynamic surface tension (surface tensiometry); type: physicochemical; conditions: equilibrium mode, aqueous solution
From the text: FIGS. 5 and 6 also show the response of dynamic surface tension values (operated in equilibrium mode) measured as a function of concentration for surfactants 4 and the anionic salt 7 in aqueous solution. The physicochemical properties of a surfactant change to a significant degree after reaching the cmc due to the presence of micelles and a surfactant-saturated air-water interface.
A comprehensive listing of all the physicochemical properties calculated for these surfactants is shown above in Table 1.
The surfactant concentration at the intersection of the two lines which are least-squares fit to (1) the rapidly changing surface tension readings and (2) the low, relatively constant surface tension readings at high surfactant concentrations defines the cmc by this method. The cmc's calculated from the surface tension data of surfactants 4 and 7 are 1.9 mmol and 5.9 mmol, respectively. The higher values for cmc as determined by dynamic surface tension compared to Orange OT dye solubilization can be attributed to static (dye solubilization) vs. dynamic (surface tension) measurements of the microenvironment.

Compound	time to nearly complete decomposition [1]	cmc as determined by surface tensiometry [2]
C=CCCCCC=CCCCCC=CCCCCC[N+](C)(C)C.[I-] [Surfactant 4, trimethylnonadeca-6,12,18-trienylammonium iodide]	≤ 60 min	1.9 mmol
dipotassium heneicosa-2,8,14,20-tetraenyl malonate [Surfactant 7]		5.9 mmol
